Series [1] can be described thus: Metabolic stability in pooled human liver microsomes. The class given is in vitro ADME. The following applies: 0.1 μM compound, human liver microsomes 0.1 mg/mL, NADPH, 37° C., 60 minutes. Here is the method: Compounds of the present invention (0.1 μM) were incubated with microsomes at 37° C. for a total of 60 minutes. The reaction contained pooled human liver microsomal protein (0.1 mg/mL) in potassium phosphate buffer with NADPH. At the indicated time points (0, 5, 15, 30 and 60 minutes). Samples were analyzed by LC/MS/MS and remaining parent drug was calculated using Microsoft Excel (2007). Obach R S, Drug Metab Dispos. 27(11):1350-1359 (1999).

Series [2] relates to MC3T3-E1 (mouse calvarial) osteoblast cells. The experiment in a line: Bone formation assay: rescue of sclerostin inhibition of mineralization (total calcium). The format is cell-based. Also noted: key to Sclerostin Inhibition of Mineralization; improvement over sclerostin alone: − indicates no improvement over sclerostin protein alone; + indicates an IC100 >10 μM; ++ indicates an IC100 <10 μM. As to conditions: for Sclerostin Inhibition of Mineralization; improvement over sclerostin alone: IC100 class, calcium concentration. Here is the method: Mineralization (crystalline calcium phosphate formation) represents an in vitro model of bone formation. Using an assay in which the amount of mineralization is quantified by measuring total calcium after solubilization of deposited crystalline calcium phosphate, sclerostin was previously shown to inhibit mineralization in MC3T3-E1 (mouse calvarial) osteoblast cells. Li et al., J Bone Miner Res 24:578-588 (2008). Following the protocol described in Li et al., Compounds were assayed for their ability to rescue the inhibition of mineralization by sclerostin in MC3T3 osteoblast cells. […] Addition of a compound of Examples 1-6 neutralized sclerostin-mediated inhibition of mineralization, as reflected by the increase in calcium concentration.

In series [3] the target is T1, sclerostin (Homo sapiens, UniProt Q9BQB4).
T1 construct: host or cells: human embryonic cells (assay cells)
T1 sequence (Q9BQB4 24-213): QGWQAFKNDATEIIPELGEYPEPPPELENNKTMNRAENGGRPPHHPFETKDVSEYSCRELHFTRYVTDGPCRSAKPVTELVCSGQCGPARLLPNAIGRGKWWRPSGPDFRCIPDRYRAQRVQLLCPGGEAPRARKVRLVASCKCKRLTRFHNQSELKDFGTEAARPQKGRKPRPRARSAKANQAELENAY
The experiment in a line: Modulation of sclerostin/Wnt activity: restoring Wnt3a signaling in the presence of sclerostin. The format is cell-based. Also noted: key to Sclerostin Inhibition Assay; improvement over sclerostin alone: − indicates no improvement over sclerostin protein alone; + indicates an IC100 >10 μM; ++ indicates an IC100 <10 μM. As to conditions: for Sclerostin Inhibition Assay; improvement over sclerostin alone: IC100 class, Wnt3a signaling in human embryonic cells in the presence of sclerostin. The protocol:
Compounds synthesized in accordance with the methods of Examples 1-6 were assayed for their ability to restore Wnt signaling in the presence of sclerostin consistent with a known sclerostin antagonist, sclerostin Mab. See, Ellies et al., J Bone Miner Res 21:1738-1749 (2006). […] The addition of a known sclerostin antagonist inhibited sclerostin inhibition of Wnt3a signaling, thus restoring Wnt3a signaling in the cell (IC100 at 10 μM) (data not shown).

Regarding `COc1ccc2c3ccnc(C(F)(F)F)c3n(CCN3CCOCC3)c2n1.Cl` [Example 3, 4-(2-(2-Methoxy-8-(trifluoromethyl)-9H-pyrrolo[2,3-b:5,4-c′]dipyridin-9-yl)ethyl)morpholine hydrochloride salt], in series [1], the “Metabolic Stability” value is given as “++ (++ indicates a stability >1x)”. In addition, the “Sclerostin Inhibition of Mineralization; improvement over sclerostin alone” value in series [2] is recorded as “++ (++ indicates an IC100 <10 μM)”. Besides, the “Sclerostin Inhibition Assay; improvement over sclerostin alone” value in series [3] was “++ (++ indicates an IC100 <10 μM)”.

`COc1cc2c(cn1)c1ccnc(C(F)(F)F)c1n2CCN1CCOCC1.Cl` [Example 4, 4-(2-(3-Methoxy-6-(trifluoromethyl)-5H-pyrrolo[2,3-c:4,5-c′]dipyridin-5-yl)ethyl)morpholine hydrochloride salt]: the “Metabolic Stability” value in series [1] is “++ (++ indicates a stability >1x)”. Further, the “Sclerostin Inhibition of Mineralization; improvement over sclerostin alone” value in series [2] was “++ (++ indicates an IC100 <10 μM)”. Besides, the “Sclerostin Inhibition Assay; improvement over sclerostin alone” value in series [3] is recorded as “++ (++ indicates an IC100 <10 μM)”.

As to `Cl.[O-][n+]1ccc2c3ccnc(C(F)(F)F)c3n(CCN3CCOCC3)c2c1` [Example 2, 9-(2-Morpholinoethyl)-8-(trifluoromethyl)-9H-pyrrolo[2,3-c:5,4-c′]dipyridine 2-oxide hydrochloride salt], in series [1], the “Metabolic Stability” value is given as “++ (++ indicates a stability >1x)”. Moreover, the “Sclerostin Inhibition of Mineralization; improvement over sclerostin alone” value in series [2] is “−”. Also, the “Sclerostin Inhibition Assay; improvement over sclerostin alone” value in series [3] was “−”.

Regarding `COc1nc2c(cc1F)c1ccnc(C(F)(F)F)c1n2CCN1CCOCC1.Cl` [Example 6, 4-(2-(3-Fluoro-2-methoxy-8-(trifluoromethyl)-9H-pyrrolo[2,3-b:5,4-c′]dipyridin-9-yl)ethyl)morpholine hydrochloride salt], the “Metabolic Stability” value in series [1] is “++ (++ indicates a stability >1x)”. Also, the “Sclerostin Inhibition of Mineralization; improvement over sclerostin alone” value in series [2] is “++ (++ indicates an IC100 <10 μM)”. For the same compound, in series [3], the “Sclerostin Inhibition Assay; improvement over sclerostin alone” value is “++ (++ indicates an IC100 <10 μM)”.

As for `COc1ncc2c3ccnc(C(F)(F)F)c3n(CCN3CCOCC3)c2n1` [Example 5, 4-(2-(2-Methoxy-8-(trifluoromethyl)-9H-pyrido[4′,3′:4,5]pyrrolo[2,3-d]pyrimidin-9-yl)ethyl)morpholine], the “Metabolic Stability” value in series [1] is recorded as “++ (++ indicates a stability >1x)”. Further, the “Sclerostin Inhibition of Mineralization; improvement over sclerostin alone” value in series [2] is given as “++ (++ indicates an IC100 <10 μM)”. Besides, the “Sclerostin Inhibition Assay; improvement over sclerostin alone” value in series [3] is “++ (++ indicates an IC100 <10 μM)”.

In the case of “Sclerostin protein: sclerostin protein, antagonizes Wnt3a signaling and inhibits mineralization; the assays' inhibitory stimulus and baseline”, in series [2], the “effect on mineralization, as measured by calcium concentration (in words)” value was “significant decrease in mineralization” and the “Sclerostin Inhibition of Mineralization; improvement over sclerostin alone” value is given as “−”. Further, the “Sclerostin Inhibition Assay; improvement over sclerostin alone” value in series [3] is listed as “−”. The “effect on Wnt3a signaling (in words)” value in series [3] (human embryonic cells) is on record as “antagonized Wnt3a signaling”.

Take `Cl.FC(F)(F)c1nccc2c3ccncc3n(CCN3CCOCC3)c12` [Example 1, 4-(2-(1-(Trifluoromethyl)-9H-pyrrolo[2,3-c:5,4-c′]dipyridin-9-yl)ethyl)morpholine hydrochloride salt]: the “Metabolic Stability” value in series [1] was “++ (++ indicates a stability >1x)”. For the same compound, the “Sclerostin Inhibition of Mineralization; improvement over sclerostin alone” value in series [2] was “+ (+ indicates an IC100 >10 μM)”. For the same compound, the “Sclerostin Inhibition Assay; improvement over sclerostin alone” value in series [3] was “+ (+ indicates an IC100 >10 μM)”.

The record behind these values is patent US12195461B2, “Pyrrolo-dipyridine compounds” (OssiFi Therapeutics LLC, priority 2018, dated 2025).
